For 92 molecules, melting point results are on record in a melting point compilation (Tetko et al.; mined from patent text by program, amines drawn as free bases though some values may be those of a salt).

Structures are written as SMILES.

For `S=C1CCNc2ccccc2N1`, the melting point (as a rule, the temperature, or range, at which the solid turns liquid) fell in the range of 154 to 157 °C.
For the molecule `Cn1cc2c3c(c(F)cc2n1)CCC3=O`, the melting point fell in the range of 190 to 192 °C.
Next, `CCCCOc1cc(CCC(=O)O)ccc1CCCc1ccc(OS(=O)(=O)CC)c(OC)c1`: 64 °C.
Take `COC(=O)CCCc1cc2nc(Cl)ccc2n1S(=O)(=O)c1ccc(Cl)cc1`: the melting point was 108 °C.
The same measure for `CC(=O)Nc1ccc(OC(=O)C2CCc3c(c4ccccc4n3C(=O)c3ccccc3)C2)cc1` (configuration not stated): 166 to 168 °C; for `CCc1ccc(-c2ccc(C(=O)N[C@@H]3CCc4cccc(N5CCN(C)CC5)c4C3)cc2)cc1`: 234 to 235 °C.
Next, `O=C(NCCO)c1cccc(-c2cccc3nc(Cc4cccc(C(F)(F)F)c4)oc23)c1`: 122 to 123 °C; `Cc1cc(C)cc(NC(=O)Cc2ccc(O)cc2)c1`: 183 to 185 °C.
With `COc1ccc(-c2c(Br)oc3cc(OC)cc(OC)c23)cc1`, the melting point is 125 to 126 °C.
The same measure for `N#Cc1cc(-c2ccccc2)cnc1Cl`: 149 to 150 °C.
Next, `CC(=O)NCC1CCN(CC2COc3ccccc3O2)CC1` (configuration not stated): 138 °C; `CC1(C)CCC(C)(C)c2cc(-c3ccc4cc(O)ccc4c3)ccc21`: 104 °C; `COC1=C(OC)C(=O)C(CCCCCCCCCCCCCCCCCCCCCCO)=C(C)C1=O`: 89 to 90.5 °C.
`Cn1nc(-c2ccc(Cl)cc2Cl)cc1OC(F)F` came in with a melting point of 35 °C.
For `CCCCCCCCCCCc1cc2ccc(C(=O)OCCCC)cc2[nH]1`, the melting point is 73 to 76 °C.
The same measure for `Cc1ncc2c(c1C(=O)O)COc1ccccc1C2=O`: 216 to 218 °C; for `Cc1nc2c(N)nc3ccncc3c2n1C`: 330 to 335 °C; for `COc1cc(C2CCCO2)cc(OC)c1OC` (configuration not stated): 102 to 104 °C.
`O=C(Nc1ccccc1C(=O)NCCc1nccs1)c1ccc(Cl)cc1` yielded a melting point of 156 to 160 °C.
The molecule `Cc1cccc(N=NC2=NCCS2)c1C` displayed a melting point of 74 to 79 °C.
Next, `Cc1ccc(N(C)S(=O)(=O)c2cccs2)c2[nH]c(C3=NCC(C#N)S3)cc12` (configuration not stated): 173 to 174 °C; `O=C(c1[nH]c2ccccc2c1Sc1ccccn1)N1CCCC1`: 211 to 213 °C; `CC(C(=O)N1c2ccccc2N(C)C(=O)c2cnc(-c3ccccc3)nc21)N1CCNCC1` (configuration not stated): 197 °C.
The same measure for `CCCCCC(=O)Oc1ccc(-c2ccc(C#N)cc2)cc1`: 56.1 °C.
`CC(=O)Nc1ccc2c(c1)C(=O)C(=O)N2CCN(C(C)C)C(C)C` gave a melting point of 187 to 190 °C.
`O=[N+]([O-])c1ccc(C=[N+]([O-])c2cccc(CO)c2)cc1` yielded a melting point of 207 to 209 °C.
`O=C1c2c(O)cc(O)cc2OC(c2ccc(O)cc2)C1O` (configuration not stated): the melting point lay within 221 to 223 °C.
For the molecule `CCN(CC)C(N)=C(C#N)C(N)=S`, the melting point was 151 to 152 °C.
As to `CCOc1cc(C(C)(C)C)ccc1-c1nc(-c2c(F)cccc2Cl)nn1C`, the melting point was 108 to 111 °C.
Regarding `COc1ccc(OC)c(CCc2ccc3ncnc(N)c3c2)c1`, the melting point fell in the range of 160 to 165 °C.
The molecule `O=c1nc(-c2cccc(CS(=O)(=O)Cc3ccccc3)n2)sc2ccccc12` gave a melting point of 246 to 248 °C.
For the molecule `N#Cc1cc2cccnc2nc1Cl`, the melting point came to 273 °C.
Take `CCN1CCC(C(C(N)=O)(c2ccccc2)c2ccccc2)C1` (configuration not stated): the melting point is 141 to 142 °C.
In the case of `CCCCCCCCCCCCCc1nc(N)no1`, the melting point was in the range of 90 to 91 °C.
The same measure for `CCCCCCCCCCS(=O)(=O)NC(=O)c1cnc(C(=O)NCC(=O)OCC)c(OC)c1`: 70 °C; for `CC(C)C(=O)OCC(=O)C12OC(C3CCCCC3)OC1CC1C3CCC4=CC(=O)C=CC4(C)C3C(O)CC12C` (configuration not stated): 210 to 211 °C; for `CC(=O)Nc1cc(C(F)(F)F)ccc1S(=O)(=O)CC#N`: 146 to 147 °C.
`CC(=O)OCC1CCc2c(C3=C(c4cn(C)c5ccccc45)C(=O)OC3=O)c3ccccc3n2C1` (configuration not stated): the melting point is 190 to 193 °C.
The same measure for `CCC(O)(c1cccc(NS(=O)(=O)CC)c1)c1c[nH]cn1` (configuration not stated): 120 to 124 °C; for `Cc1cc(C)c2cccc(C(=O)Nc3nnn[nH]3)c2n1`: 300 to 305 °C; for `CCOC(=O)C(C)n1ncc2ccc([N+](=O)[O-])cc21` (configuration not stated): 99.7 to 100 °C.
The same measure for `CC(C)CC(N)S(=O)(=O)O` (configuration not stated): 142 to 144 °C; for `N#Cc1ccc(NC(=CNCC(=O)O)[N+](=O)[O-])cc1`: 230 °C; for `CC(=O)OCC1(C)OCC2(CO1)COC(C)(COC(C)=O)OC2` (configuration not stated): 66 to 67 °C.
The same measure for `c1cc(CCCCn2ccnc2)cc(OCc2ccc3oc(-c4cccs4)nc3c2)c1`: 97 to 98 °C; for `O=C(O)CCCOc1cccc2c1Cc1sc(SCC(c3ccccc3)c3ccccc3)nc1-2`: 137 to 138 °C; for `NC1([C@@H]2CCN(c3nc4c(cc3F)c(=O)c(C(=O)O)cn4[C@@H]3C[C@@H]3F)C2)CC1`: 232 to 234 °C.
The molecule `O=C(c1ccccc1)n1c2cc(O)c(O)cc2c2ccc(O)c(O)c21` displayed a melting point of 242 to 243 °C.
The same measure for `Oc1ccc2c(c1)CCCC(c1ccccc1)=C2c1ccc(OCCCCCSCc2ccco2)cc1`: 171 °C; for `CNC(=O)N1N=C(c2ccc(N)cc2)c2cc(OC)ccc2CC1C` (configuration not stated): 190 to 191 °C; for `CC(=O)c1ccc2c(c1)C(=O)c1ccccc1CN2Cc1ccccc1`: 163 to 165 °C.
The same measure for `COP(=O)(OC)C(O)=Cc1ccc(C)cc1`: 100 to 102 °C; for `C=CCNC(=O)N1CC(Oc2ccc(Br)cc2)C1`: 100 to 101 °C.
Consider `Nc1nc2c(s1)CC(CCN1CCN(c3ccccn3)CC1)CC2` (configuration not stated), for which the melting point lay within 176 to 190 °C.
The same measure for `Cc1ccc(Sc2cncc3sccc23)cc1`: 94 to 95 °C; for `Cc1oc(-c2ccccc2)nc1CCOc1ccc(/C=C/CO)cn1`: 115 to 116 °C; for `CCCC(CCC)C(=O)N[C@H](C(=O)N[C@H]1CCO[C@@H]1OC)C(C)C`: 150 to 156 °C.
The molecule `O=C(c1cccs1)c1cnn2c(-c3cccc(-c4nnn(CC5CCC5)n4)c3)ccnc12` registered a melting point of 170 °C.
With `CCNC(=O)Nc1cc(C(C)(C)C)c2c(c1)C(C)(C)CO2`, the melting point is 197 to 198 °C.
The same measure for `CCc1c(Oc2cnc(N)nc2N)cc(Br)c2c1OCCO2`: 291 to 293 °C; for `CCN1c2ccccc2Sc2cc(C=O)ccc21`: 94 to 95 °C.
Next, `C=C(C1=C(CCC(=O)OC)C(=O)CC1OC(C)=O)c1ccccc1` (configuration not stated): 78 to 79 °C.
As for `O=CN(O)C(CS(=O)(=O)c1ccc(Oc2ccc(OC(F)(F)F)cc2)cc1)CS(=O)(=O)N1CCCC1` (configuration not stated), the melting point was in the range of 120 to 123 °C.
Next, `CON(C)C(=O)c1cc(C(F)(F)F)nc2c(C(F)(F)F)cccc12`: 93 to 95 °C.
Next, `Cc1cc(-c2csc(-c3ccc(C(=O)O)cc3)n2)c(C)s1`: 239 to 240 °C; `CN(C)C(=O)c1cccc(C(=O)Nc2cccc3cc(Br)cnc23)c1`: 157 °C; `COc1ccc(-n2nc(Sc3cccc(C)c3)c(C)c(C#N)c2=O)cc1`: 121 to 122 °C.
The same measure for `OCC1C=CC(n2cnc3c(O)ncnc32)O1` (configuration not stated): greater than 310 °C; for `NC(=O)c1nc(-c2ccccc2)[nH]c1N`: 300 °C; for `CC(=O)COc1cccnc1C(N)=O`: 135 to 140 °C.
`O=[N+]([O-])c1ccc2sc(NCCO)nc2c1` yielded a melting point of 183 °C.
In turn, `CCCCN(C(=O)C(C)C)c1nnc(C)s1` returned a melting point of 54 to 57 °C.
The same measure for `O=C(Nc1c(C(O)(C(F)(F)F)C(F)(F)F)ccc2ccccc12)c1cc(Cl)cc(Cl)c1`: 205 to 207 °C; for `COc1ccc(Cl)cc1-c1nnn(-c2ccc(Cl)cc2Cl)c1N`: 154 to 155 °C; for `O=C1c2ccccc2C(=O)N1CCS(=O)(=O)c1ccccc1`: 186 to 188 °C.
Next, `CS(=O)(=O)c1ccc(-n2nc(C(F)(F)F)cc2-c2nc3c(F)cccc3s2)cc1`: 208 to 209 °C.
Next, `O=C(O)COC1CCN(C(=O)CN2CCN(c3ccncc3)CC2)CC1`: 198 to 200 °C; `CC(=O)NCC1CN(c2ccc(N3CCN(c4ncc([N+](=O)[O-])s4)CC3)c(F)c2)C(=O)O1` (configuration not stated): 202 to 203 °C.
Consider `CCOC(=O)c1ccc(/C=C(\C)c2ccc3c(c2)OCCCC3)cc1`, for which the melting point fell in the range of 71 to 72 °C.
The same measure for `NC(=O)c1cc(-c2ncc(C(F)(F)F)cc2Cl)ccc1Cl`: 167 to 168 °C.
The same measure for `O=Cc1cc2sc3ccccc3c2c2ccccc12`: 142 to 144 °C; for `O=C(OCN1C(=O)c2ccccc2C1=O)c1ccccc1N=Nc1ccc(O)c(O)n1`: 196 to 201 °C.
Next, `COC(=O)c1ccc(-c2nc(-c3cc(C)sc3C)cs2)cc1`: 109 to 110 °C; `CCOC(=O)c1cc(-c2ccccn2)[nH]n1`: 103 to 105 °C.
The molecule `c1ccc2c(C3CCC4(CC3)OCCO4)c[nH]c2c1` registered a melting point of 163 to 165 °C.
On to `O=C(O)CCc1oc(=S)[nH]c1-c1ccc(Cl)cc1`, for which the melting point is 196 to 197 °C.
For `Cc1cc(CCCCc2cc(C)c(O)c(C(C)(C)C)c2)cc(C(C)(C)C)c1O`, the melting point lay in the range of 106 to 107 °C.
As to `CCCCCCCCCCc1ccc(C(=O)O[C@@H]2CC[C@H](NC(=O)[C@H](OC)[C@H](O)[C@@H](O)[C@H](O)/C=C/C(C)(C)C)C(=O)NC2)cc1`, the melting point lay in the range of 60 to 64 °C.
In turn, `CCCC1=C(C(=O)OCC)C(c2ccccc2OC)c2c[nH]nc2N1` (configuration not stated) displayed a melting point of 169 °C.
Next, `CCCCN1CCN(Cc2ccc(COc3cccc4c3CN(C3CCC(=O)NC3=O)C4=O)cc2)CC1=O` (configuration not stated): 138 to 140 °C; `CCOC(=O)c1cc(N=C=S)c(Cl)cc1Cl`: 45 to 46 °C.
The same measure for `COc1ccc(-c2nn(CC(C)C)c3c(F)cccc23)c(OC)c1`: 92 to 93 °C.
